Where no end group is shown, it is not given here.
What was measured:
[1] = test system: Agrp-cre::hM3Dq-mCherry mice; test: DREADD (hM3Dq/CNO)-stimulated feeding; assay type: in vivo, mouse
Procedure: For surgery, mice (8 to 12 weeks) were anesthetized with isoflurane (1 L/min O2 with 2% isoflurane). Following surgery, all mice received 0.03 mg/kg buprenorphine (Buprenex, Reckitt Benckiser, Slough, UK) and were allowed a minimum of 1 week to recover before treatment started. DIO mice received subcutaneous implants of an Alzet 2002 osmotic minipump (Durect, Cupertino, CA). All of the DIO mice experienced a small reduction in body weight following implantation of the minipump. For experiments using designer receptors exclusively activated by designer drugs (DREADDs), AgRP-cre mice received bilateral injections of AAV2-hSyn-DIO-hM3Dq-mCherry (UNC Vector Core, Chapel Hill, NC) ([35]) into the arcuate nucleus (3 × 23 nL per side), using the following coordinates relative to Bregma, according to Paxinos and Franklin ([36]): anterior, −1.5 mm; lateral, ±0.30 mm; and ventral, −6.2 mm. Subsequently, the DREADDs were activated by IP injection of the designer drug, clozapine N-oxide (CNO; Sigma-Aldrich, St. Louis, MO) at 1 mg/kg.

mice [2] = test: Ghrelin-induced daytime feeding; assay type: in vivo, mouse; conditions: 2 mg/kg IP, light phase, fed mice
Procedure: (§1) For acute experiments, mice were acclimated to handling for 2 weeks and housed singly with free access to food at least 4 days before experiments. Nighttime injections of NNC0165-1273 were given subcutaneously (SC) 30 minutes before start of “dark phase,” and food intake was measured 1, 2, 4, and 14 hours later. Daytime feeding experiments commenced 4 hours into the “light phase” [Zeitgeber time (ZT) 4]; injections of ghrelin (2 mg/kg, IP) and NNC0165-1273/PYY3-36 (various doses, SC) were given concomitantly, and food intake measured at 1, 2, 4, and 24 hours later.

NPY/AgRP neurons = test: cFos immunohistochemistry in arcuate NPY/AgRP neurons; assay type: in vivo, mouse
Procedure: Mice were transcardially perfused with chilled 0.9% NaCl followed by 4% paraformaldehyde in 0.1M phosphate buffer (Sigma-Aldrich). Whole brains were postfixed overnight and then dehydrated in 30% sucrose solution. Brains were flash frozen on dry ice, and then 30 µm sections were collected using a freezing sledge microtome and transferred to 0.1M phosphate buffer.
For chromogenic visualization of cFos, free-floating sections were incubated sequentially in rabbit anit-cFos primary [1:1000; SC-52; Santa Cruz, Dallas, TX ([37])], biotinylated goat anit-rabbit secondary [1:500; BA-1000; Vector Laboratories, Cambridge, UK ([38])], and streptavidin-biotin-peroxidase complex (1:500; RPN1051; GE Healthcare, Chicago, IL). This was combined with fluorescence staining for GFP or mCherry reporters; this required coincubation of sections with chicken anit-GFP [1:1000; 13970; Abcam, Cambridge, UK ([39])] followed by donkey anit-chicken^ALEXA 488 [1:1000; 703-545-155, Jackson ImmunoResearch, West Grove, PA ([40])], or with rabbit anti-DsRed [1:1000, 632396, Clontech, CA ([41])] followed by donkey […]^ALEXA 594 [1:1000; 705-585-147; Jackson ImmunoResearch, ([42])]. Sections were mounted on slides before imaging on an Olympus BX51 upright microscope. Images were processed and analyzed using open-source FIJI software.

[3] = test system: arcuate NPY/AgRP neurons (Npy-hrGFP); test: Current clamp patch electrophysiology in brain slices; assay type: cell-based, mouse; conditions: 50 nM bath application; results not shown
Procedure: Npy-hrGFP mice were euthanized by decapitation, and the brains rapidly removed and sliced on a vibratome (Campden Instruments, Loughborough, UK) in ice-cold oxygenated incubation artificial cerebrospinal fluid (aCSF) containing (mM): 95 NaCl, 1.8 KCl, 1.2 KH2PO4, 7 MgSO4, 26 NaHCO3, 0.5 CaCl2, 15 glucose, and 50 sucrose. Slices were perfused with room temperature recording aCSF containing (mM): 127 NaCl, 1.8 KCl, 1.2 KH2PO4, 1.3 MgSO4, 26 NaHCO3, 2.4 CaCl2, and 5 glucose. Npy-hrGFP neurons were visualized in 250-µm slices using an Olympus BX51 with inbuilt infrared video-enhanced differential interference contrast optics and GFP fluorescence optics. Neurons were patched using 7 to 10 MΩ pipettes containing (mM): 130 K-gluconate, 10 KCl, 2 MgCl2, 10 HEPES, 0.5 EGTA, 2 K2ATP, and 0.5 NaGTP. Data were recorded on an Axoclamp 2A amplifier in bridge mode (Molecular Devices, San Jose, CA) and a CED 1401 A/D data acquisition interface (CED, Cambridge, UK) to give current clamp data at 30 kHz sampling frequency. NNC0165-1273 (Novo Nordisk, Maaloev, Denmark) was diluted in aCSF to a concentration of 50 nM and applied to perfusion chamber through a gravity-driven system. Effects were sampled with no current manipulations. All applications were timed for 3 to 5 minutes and perfusion flow was maintained at standard 1 to 2 mL/min^−1.

mice [4] = test: Normal nighttime feeding after SC injection; assay type: in vivo, mouse; conditions: serial dilution, food intake after 2 hours
Procedure: as §1

[5] = cited from earlier work
Excerpt: (§2) PYY3-36 and ghrelin were purchased from Bachem (Bubendorf, Switzerland). NNC0165-1273 was identified from a series of modified PYY peptides and synthesized with the aim of increased selectivity for Y2 receptors vs the other Y receptors [peptide no. 29 in Østergaard et al. ([9])].

human Y1 receptor = conditions: ref [9] Østergaard et al., read-out: binding inhibitory constant (Ki), Y1 receptor; cited from earlier work
Excerpt: as §2

human Y2 receptor = conditions: same binding assays for both peptides, ref [9] Østergaard et al., read-out: binding inhibitory constant (Ki), Y2 receptor; cited from earlier work
Excerpt: as §2

human Y4 receptor = conditions: ref [9] Østergaard et al., read-out: binding inhibitory constant (Ki), Y4 receptor; cited from earlier work
Excerpt: as §2

human Y5 receptor = conditions: ref [9] Østergaard et al., read-out: binding inhibitory constant (Ki), Y5 receptor; cited from earlier work
Excerpt: as §2

C[N+]1([O-])CCN(C2=Nc3cc(Cl)ccc3Nc3ccccc32)CC1 [CNO, clozapine N-oxide]
food intake in Agrp-cre::hM3Dq-mCherry mice ([1]; single IP injection 1 mg/kg, vs saline): substantial increase in food intake
food intake in wild-type mice ([1]; wild-type mice, results not shown): do not respond

ghrelin: orexigenic peptide purchased from Bachem, used to induce feeding and activate NPY/AgRP neurons (GSSFLSPEHQRVQQRKESKKPPAKLQPR; ends and bridges not checked; UniProt Q9UBU3 24-51, looked up)
food intake after ghrelin alone (mice [2]): substantial increase in food intake
cFos expression in the arcuate nucleus, notably NPY-hrGFP neurons (NPY/AgRP neurons; ghrelin 2 mg/kg, 90 minutes after injection): substantial increase
resting membrane potential of NPY/AgRP neurons [3]: increase in the resting membrane potential

PYY3-36: truncated major circulating form of gut hormone peptide YY; purchased from Bachem
threshold dose needed to inhibit nighttime feeding (mice [4]): 0.04 µmol/kg
ghrelin-induced activation (cFos) of NPY/Agrp neurons (NPY/AgRP neurons; pretreatment before ghrelin 2 mg/kg, perfused 90 minutes after ghrelin, Npy-hrGFP mice): blocked
half-life in pig plasma [5]: 3.33 h
Ki (human Y1 receptor): 40 nM
Ki (human Y2 receptor): 0.4 nM
Ki (human Y4 receptor): 13 nM
Ki (human Y5 receptor): 3.2 nM
